Values after ≈ are worked out from the molar mass of the structure shown.
Tests used:
[1] = Aqueous solubility assay in Normal Ringer Solution; conditions: Normal Ringer Solution; for solubility at 40 min: saline or isotonic, kinetic from dmso stock; for Solubility Ringer (nM): room temperature
Method: Following vortex and incubation for a sufficient time (e.g. 40 minutes at room temperature), solutions were filtered, quenched with acetonitrile, and analyzed by Liquid Chromotography. Solubility Limits were determined by comparison to a standard curve.

hTRPV3 [2] = biological target: T1, hTRPV3 (Homo sapiens (Human), UniProt Q8NET8); assay: Whole-cell patch clamp, hTRPV3 Phase 1 / Phase 2 currents; assay type: cell-based
Procedure, shortened: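 Whole-cell recordings on induced TRPV3 cells replated on coverslips, held at −40 mV with 400 ms ramps from −120 to +100 mV every 5 s; currents read at −80 and +80 mV. Ringer's external solution; current activated by heating to ≥28 °C or 20 μM 2-APB.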

hTRPV3 [3] = biological target: T1, hTRPV3; assay: hTRPV3 HAMA IC50 assay (Hamamatsu FDSS6000 calcium flux, TRex-293 cells)
Method: IC50s were calculated using CBIS from ChemInnovation (San Diego).

[4] = Phase 1 current, inward, whole-cell patch clamp, read-out: hTRPV3 Patch P1 Inwd
[5] = Phase 1 current, read-out: hTRPV3 (nM) (Phase 1)
[6] = hTRPV3 HAMA IC50 (nM) (5 min), 5 min
[7] = hTRPV3 HAMA IC50 (nM) (30 min), 30 min
[8] = Phase 2 current, inward, whole-cell patch clamp, read-out: hTRPV3 Patch P2 Inwd
[9] = Phase 2 current, read-out: hTRPV3 (nM) (Phase 2)

T1 sequence (Q8NET8 whole entry): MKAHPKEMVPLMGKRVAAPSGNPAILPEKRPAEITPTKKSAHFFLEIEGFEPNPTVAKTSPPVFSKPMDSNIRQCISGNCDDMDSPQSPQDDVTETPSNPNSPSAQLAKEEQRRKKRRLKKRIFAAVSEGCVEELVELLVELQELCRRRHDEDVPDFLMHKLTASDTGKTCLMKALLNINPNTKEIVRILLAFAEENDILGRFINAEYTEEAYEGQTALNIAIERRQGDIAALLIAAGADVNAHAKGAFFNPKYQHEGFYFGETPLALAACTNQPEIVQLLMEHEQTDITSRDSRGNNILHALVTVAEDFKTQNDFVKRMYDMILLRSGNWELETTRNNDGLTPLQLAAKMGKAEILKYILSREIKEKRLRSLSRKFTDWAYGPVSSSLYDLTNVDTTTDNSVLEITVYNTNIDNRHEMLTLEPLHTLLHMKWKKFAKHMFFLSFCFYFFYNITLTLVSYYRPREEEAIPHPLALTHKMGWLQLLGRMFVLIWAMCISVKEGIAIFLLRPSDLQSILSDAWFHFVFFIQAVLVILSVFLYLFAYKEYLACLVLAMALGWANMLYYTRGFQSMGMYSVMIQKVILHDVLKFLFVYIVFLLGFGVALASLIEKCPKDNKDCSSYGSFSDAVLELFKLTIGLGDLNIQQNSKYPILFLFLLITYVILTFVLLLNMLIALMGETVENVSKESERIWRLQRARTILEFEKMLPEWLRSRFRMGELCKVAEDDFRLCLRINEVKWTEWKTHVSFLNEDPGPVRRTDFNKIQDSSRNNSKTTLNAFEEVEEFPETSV

Structure (SMILES)	solubility at 40 min [1]	IC50 (hTRPV3 [2]; [4])	IC50 (hTRPV3 [2]; [5])	IC50 (hTRPV3 [3]; [6])	IC50 (hTRPV3 [3]; [7])	IC50 (hTRPV3 [2]; hTRPV3 Patch P1 Inwd (nM))	IC50 (hTRPV3 [2]; read-out: hTRPV3 (nM) (Phase 1))	hTRPV3 HAMA IC50 (nM) (5 min) (hTRPV3 [3]; 5 min)	hTRPV3 HAMA IC50 (nM) (30 min) (hTRPV3 [3]; 30 min)	IC50 (hTRPV3 [2]; [8])	IC50 (hTRPV3 [2]; [9])	Solubility Ringer (nM) [1]
Cc1ccccc1-c1ccc(N2CC[C@H](Oc3ccc(C(F)(F)F)cn3)C2)c(CO)n1 [Compound 1-182, (S)-(6-o-tolyl-3-(3-(5-(trifluoromethyl)pyridin-2-yloxy)pyrrolidin-1-yl)pyridin-2-yl)methanol]	~0.8 µM (≈ 0.344 µg/mL)	> 1000 nM	> 3200 nM	19900 nM	4600 nM							
Cc1ccc(O[C@H]2CCN(c3ccc(-c4ccccc4CN(C)C)cc3CO)C2)nc1 [Compound 1-219, (S)-(2′-((dimethylamino)methyl)-4-(3-(5-methylpyridin-2-yloxy)pyrrolidin-1-yl)biphenyl-3-yl)methanol]	> 20 µM					> 1000 nM	> 3200 nM	no fit (5 min) no fit (30 min)	no fit (5 min) no fit (30 min)			
COc1ccccc1-c1ccc(N2CC[C@H](Oc3ccc(C(F)(F)F)cn3)C2)c(CO)n1 [Compound 1-183, (S)-(6-(2-methoxyphenyl)-3-(3-(5-(trifluoromethyl)pyridin-2-yloxy)pyrrolidin-1-yl)pyridin-2-yl)methanol]	0.84 µM (≈ 0.374 µg/mL)							no fit (5 min) no fit (30 min)	no fit (5 min) no fit (30 min)	> 1000 nM	> 3200 nM	
OCCc1cc(Oc2ccccc2Cl)ccc1N1CC[C@H](Oc2ncccc2Cl)C1 [Compound 1-238, (S)-2-(5-(2-chlorophenoxy)-2-(3-(3-chloropyridin-2-yloxy)pyrrolidin-1-yl)phenyl)ethanol]		10 to 100 nM	~51 nM	> 20000 nM	16700 nM							BLQ
OCCCc1cc(-c2ccccc2Cl)ccc1N1CC[C@H](Oc2ccc(C(F)(F)F)cn2)C1 [Compound 1-164]		100 to 1000 nM	190 nM					no fit (5 min)				BLQ
N#Cc1cc(C(F)(F)F)ccc1N1CC[C@H](Oc2ccc(C(F)(F)F)cn2)C1 [Compound 1-57]		100 to 1000 nM	706 nM					no fit (5 min)		100 to 1000 nM	219 nM	BLQ
NC(=O)c1cc(-c2ccccc2Cl)ccc1N1CC[C@H](Oc2ccc(C(F)(F)F)cn2)C1 [Compound 1-64, (S)-2′-chloro-4-(3-(5-(trifluoromethyl)pyridin-2-yloxy)pyrrolidin-1-yl)biphenyl-3-carboxamide]		100 to 1000 nM	145 nM					no fit (5 min)		100 to 1000 nM	160 nM	BLQ
O=[N+]([O-])c1ccccc1N1CC[C@H](Oc2ccc3cc(Cl)ccc3n2)C1 [Compound 1-68, (S)-6-chloro-2-(1-(2-nitrophenyl)pyrrolidin-3-yloxy)quinoline]		> 1000 nM	> 3200 nM					no fit (5 min)		> 1000 nM	> 3200 nM	
Cc1ccccc1Oc1ccc(CO)c(N2CC[C@H](Oc3ccc(C(F)(F)F)cn3)C2)c1 [Compound 1-230, (S)-(4-(o-tolyloxy)-2-(3-(5-(trifluoromethyl)pyridin-2-yloxy)pyrrolidin-1-yl)phenyl)methanol]		100 to 1000 nM	198 nM					no fit (5 min) no fit (30 min)	no fit (5 min) no fit (30 min)			
CCc1ccccc1Oc1ccc(CO)c(N2CC[C@H](Oc3ccc(C(F)(F)F)cn3)C2)c1 [Compound 1-228, (S)-(4-(2-ethylphenoxy)-2-(3-(5-(trifluoromethyl)pyridin-2-yloxy)pyrrolidin-1-yl)phenyl)methanol]		10 to 100 nM	62.1 nM					no fit (5 min) no fit (30 min)	no fit (5 min) no fit (30 min)			
N#Cc1cc(-c2ccccc2)ccc1N1CC[C@H](Oc2ccc(C(F)(F)F)cn2)C1 [Compound 1-56, (S)-4-(3-(5-(trifluoromethyl)pyridin-2-yloxy)pyrrolidin-1-yl)biphenyl-3-carbonitrile]								R2 fail (5 min)		100 to 1000 nM	~504 nM	
FC(F)(F)c1ccc(O[C@H]2CCN(c3ccccc3-c3ccccc3)C2)nc1 [Compound 1-27, (S)-2-(1-(biphenyl-2-yl)pyrrolidin-3-yloxy)-5-(trifluoromethyl)pyridine]		> 1000 nM	> 3200 nM					no fit (5 min)				
COc1ccccc1-c1ccc(N2CC[C@H](Oc3ncccc3C)C2)c(CO)n1 [Compound 1-186, (S)-(6-(2-methoxyphenyl)-3-(3-(3-methylpyridin-2-yloxy)pyrrolidin-1-yl)pyridin-2-yl)methanol]		> 1000 nM	1010 nM					no fit (5 min) no fit (30 min)	no fit (5 min) no fit (30 min)	100 to 1000 nM	980 nM	
CCc1ccccc1-c1ccc(N2CC[C@H](Oc3ncccc3C)C2)c(CO)n1 [Compound 1-187, (S)-(6-(2-ethylphenyl)-3-(3-(3-methylpyridin-2-yloxy)pyrrolidin-1-yl)pyridin-2-yl)methanol]		100 to 1000 nM	720 nM					no fit (5 min) no fit (30 min)	no fit (5 min) no fit (30 min)	> 1000 nM	~1000 nM	
OCc1ccc(Oc2ccccc2Cl)cc1N1CC[C@H](Oc2ccc(C(F)(F)F)cn2)C1 [Compound 1-224, (S)-(4-(2-chlorophenoxy)-2-(3-(5-(trifluoromethyl)pyridin-2-yloxy)pyrrolidin-1-yl)phenyl)methanol]		100 to 1000 nM	161 nM					no fit (5 min) no fit (30 min)	no fit (5 min) no fit (30 min)			
CCc1ccccc1-c1ccc(N2CC[C@H](Oc3ccc(C)cn3)C2)c(CO)n1 [Compound 1-185, (S)-(6-(2-ethylphenyl)-3-(3-(5-methylpyridin-2-yloxy)pyrrolidin-1-yl)pyridin-2-yl)methanol]		> 1000 nM	> 3200 nM					no fit (5 min) no fit (30 min)	no fit (5 min) no fit (30 min)	> 1000 nM	2950 nM	
Cc1ccccc1-c1ccc(CO)c(N2CC[C@H](Oc3ccc(C(F)(F)F)cn3)C2)c1 [Compound 1-239, (S)-(2′-methyl-3-(3-(5-(trifluoromethyl)pyridin-2-yloxy)pyrrolidin-1-yl)biphenyl-4-yl)methanol]		100 to 1000 nM	607 nM					no fit (5 min) no fit (30 min)	no fit (5 min) no fit (30 min)			
FC(F)(F)c1ccc(O[C@@H]2CCN(c3ccccc3-c3ccccc3)C2)nc1 [Compound 1-28, (R)-2-(1-(biphenyl-2-yl)pyrrolidin-3-yloxy)-5-(trifluoromethyl)pyridine]		> 1000 nM	> 3200 nM					no fit (5 min)				
O=[N+]([O-])c1cc(-c2ccccc2)ccc1N1CC[C@H](Oc2ccc3cc(Cl)ccc3n2)C1 [Compound 1-70, (S)-6-chloro-2-(1-(3-nitrobiphenyl-4-yl)pyrrolidin-3-yloxy)quinoline]		> 1000 nM	> 3200 nM					no fit (5 min)		> 1000 nM	> 3200 nM	

— patent US12435061B2 (priority 2020, dated 2025)
